Measured values: patent US20240425479A1, “HALO-SUBSTITUTED AMINO AZA-HETEROARYL COMPOUNDS AS INHIBITORS OF THE HAEMATOPOIETIC PROGENITOR KINASE 1 (HPK1)” (priority 2021, published 2024)
Counter-ions that a name gives are not always drawn.

Legend:
[1] = biological target: T1, Recombinant (1-346) HPK1 (h) (Homo sapiens, UniProt Q92918); experiment: HPK1 human STE kinase enzymatic radiometric assay; type: biochemical; details: read-out: HPK1 IC50 nM Range
T1 construct: Recombinant (1-346) HPK1 (h) is incubated with 8 mM MOPS pH 7.0
T1 sequence (Q92918 1-346): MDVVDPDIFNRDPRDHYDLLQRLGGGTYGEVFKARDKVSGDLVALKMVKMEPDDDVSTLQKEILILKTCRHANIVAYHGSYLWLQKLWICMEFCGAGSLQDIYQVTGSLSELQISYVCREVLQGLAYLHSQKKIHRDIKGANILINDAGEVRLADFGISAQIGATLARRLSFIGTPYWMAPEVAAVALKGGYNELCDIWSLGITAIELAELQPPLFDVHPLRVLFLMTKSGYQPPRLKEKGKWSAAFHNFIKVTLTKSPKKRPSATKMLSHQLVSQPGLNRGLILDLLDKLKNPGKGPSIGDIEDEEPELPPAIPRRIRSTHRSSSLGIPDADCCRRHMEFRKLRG
How it was run: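 Recombinant HPK1 (1-346) incubated 40 min at RT with 0.33 mg/mL myelin basic protein and [gamma-33P]-ATP in 8 mM MOPS pH 7.0, 0.2 mM EDTA, 10 mM Mg acetate; reaction started with Mg/ATP. Stopped with 0.5% phosphoric acid, spotted on P30 filtermat, washed, scintillation counted. Compounds tested as 9-point 3-fold dilutions.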

Lck (h) = Lck (h) (Homo sapiens, UniProt P06239); experiment: Lck human STE kinase enzymatic radiometric assay; type: biochemical; details: read-out: Lck IC50 nM Range
Procedure: (b) Lck Human STE Kinase Enzymatic Radiometric Assay
Lck (h) is incubated with 50 mM Tris pH 7.5, 0.1 mM EGTA, 0.1 mM Na3VO4, 250 uM KVEKIGEGTYGVVYK (Cdc2 peptide), 10 mM MgAcetate and [gamma-33P]-ATP (specific activity and concentration as required). The reaction is initiated by the addition of the Mg/ATP mix. After incubation for 40 minutes at room temperature, the reaction is stopped by the addition of phosphoric acid to a concentration of 0.5%, 10 μL of the reaction is then spotted onto a P30 filtermat and washed four times for 4 minutes in 0.425% phosphoric acid and once in methanol prior to drying and scintillation counting. For more details on the kinase assay procedures see: Gao, Y. et. al.; Biochem J., 451 (2): 313-328, 2013.

Lck (h), sequence (P06239 whole entry): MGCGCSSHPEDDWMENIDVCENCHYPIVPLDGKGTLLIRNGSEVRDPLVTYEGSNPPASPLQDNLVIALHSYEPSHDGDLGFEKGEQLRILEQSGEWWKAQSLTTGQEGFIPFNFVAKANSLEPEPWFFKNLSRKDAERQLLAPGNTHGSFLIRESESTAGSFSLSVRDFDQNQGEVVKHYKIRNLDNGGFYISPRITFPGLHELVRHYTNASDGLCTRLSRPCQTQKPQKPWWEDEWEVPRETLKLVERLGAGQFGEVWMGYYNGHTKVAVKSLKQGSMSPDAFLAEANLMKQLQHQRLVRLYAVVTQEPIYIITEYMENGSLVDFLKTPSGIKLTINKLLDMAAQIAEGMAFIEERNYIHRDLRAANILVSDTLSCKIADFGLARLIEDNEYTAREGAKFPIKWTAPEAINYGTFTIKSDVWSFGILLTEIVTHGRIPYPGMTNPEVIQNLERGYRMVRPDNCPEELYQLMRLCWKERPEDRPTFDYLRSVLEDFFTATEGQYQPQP

| IC50 [1] | IC50 (Lck (h)) | SMILES |
| --- | --- | --- |
| 0.1 to 10 nM | > 1000 nM | CN(C)Cc1cc(-c2nc(-c3ccc4c(c3)C(F)(F)CNC4=O)c(N)nc2F)ccc1C1CCOCC1 [Example I-223, 6-(3-amino-6-(3-((dimethylamino)methyl)-4-(tetrahydro-2H-pyran-4-yl)phenyl)-5-fluoropyrazin-2-yl)-4,4-difluoro-3,4-dihydroisoquinolin-1(2H)-one] |
| 0.1 to 10 nM | > 1000 nM | CN(C)Cc1cc(-c2nc(-c3cc4c(cc3F)C(=O)NCC4)c(N)nc2F)ccc1C1CCOCC1 [Example I-60, 6-(3-amino-6-(3-((dimethylamino)methyl)-4-(tetrahydro-2H-pyran-4-yl)phenyl)-5-fluoropyrazin-2-yl)-7-fluoro-3,4-dihydroisoquinolin-1(2H)-one] |
| 0.1 to 10 nM | > 1000 nM | Nc1nc(F)c(-c2ccc(C3CCOCC3)c(CN3CCCC3)c2)nc1-c1cc2c(cc1F)C(=O)NCC2 [Example I-148, 6-(3-amino-5-fluoro-6-(3-(pyrrolidin-1-ylmethyl)-4-(tetrahydro-2H-pyran-4-yl)phenyl)pyrazin-2-yl)-7-fluoro-3,4-dihydroisoquinolin-1(2H)-one] |
| 0.1 to 10 nM | > 1000 nM | CNCC1Cc2cc(-c3nc(-c4ccc(N5CCOCC5)cc4)c(F)nc3N)ccc2C(=O)N1 (stereo not drawn) [Example I-12, 6-(3-amino-5-fluoro-6-(4-morpholinophenyl)pyrazin-2-yl)-3-((methylamino)methyl)-3,4-dihydroisoquinolin-1(2H)-one] |
| 0.1 to 10 nM | 101 to 1000 nM | Nc1nc(F)c(-c2ccc(C3CCOCC3)c(CN3CCC3)c2)nc1-c1cc(F)c2c(c1)CCNC2=O [Example I-171, 6-(3-amino-6-(3-(azetidin-1-ylmethyl)-4-(tetrahydro-2H-pyran-4-yl)phenyl)-5-fluoropyrazin-2-yl)-8-fluoro-3,4-dihydroisoquinolin-1(2H)-one] |
| 0.1 to 10 nM | > 1000 nM | Nc1nc(F)c(-c2ccc(N3CCN(CC4CC4)CC3)cc2)nc1-c1ccc2c(=O)[nH]ccc2c1 [Example I-23, 6-(3-amino-6-(4-(4-(cyclopropylmethyl)piperazin-1-yl)phenyl)-5-fluoropyrazin-2-yl)isoquinolin-1(2H)-one] |
| 0.1 to 10 nM | 101 to 1000 nM | CC(C)N1CC=C(c2ccc(-c3nc(-c4cc5c(cc4F)C(=O)NCC5)c(N)nc3F)cc2)CC1 [Example I-9, 6-(3-amino-5-fluoro-6-(4-(1-isopropyl-1,2,3,6-tetrahydropyridin-4-yl)phenyl)pyrazin-2-yl)-7-fluoro-3,4-dihydroisoquinolin-1(2H)-one] |
| 0.1 to 10 nM | > 1000 nM | CN(C)Cc1cc(-c2nc(-c3ccc4c(c3)CCNC4=O)c(N)nc2F)ccc1N1CCOCC1 [Example I-64, 6-(3-amino-6-(3-((dimethylamino)methyl)-4-morpholinophenyl)-5-fluoropyrazin-2-yl)-3,4-dihydroisoquinolin-1(2H)-one] |
| 0.1 to 10 nM | > 1000 nM | Nc1nc(F)c(-c2ccc(C3CCN(CC4CC4)CC3)cc2)nc1-c1cc(F)c2c(c1)CCNC2=O [Example I-13, 6-(3-amino-6-(4-(1-(cyclopropylmethyl)piperidin-4-yl)phenyl)-5-fluoropyrazin-2-yl)-8-fluoro-3,4-dihydroisoquinolin-1(2H)-one Formate] |
| 0.1 to 10 nM | > 1000 nM | C[C@@H]1CN(c2ccc(-c3nc(-c4ccc5c(c4)CCNC5=O)c(N)nc3F)cc2CN(C)C)CCO1 [Example I-172, (R)-6-(3-amino-6-(3-((dimethylamino)methyl)-4-(2-methylmorpholino)phenyl)-5-fluoropyrazin-2-yl)-3,4-dihydroisoquinolin-1(2H)-one] |
| 0.1 to 10 nM | > 1000 nM | CC(C)N1CCN(c2ccc(-c3nc(-c4ccc5c(=O)[nH]cc(F)c5c4)c(N)nc3F)cc2)CC1 [Example I-66, 6-(3-amino-5-fluoro-6-(4-(4-isopropylpiperazin-1-yl)phenyl)pyrazin-2-yl)-4-fluoroisoquinolin-1(2H)-one] |
| 0.1 to 10 nM | > 1000 nM | CCN(C)Cc1cc(-c2nc(-c3cc(F)c4c(c3)CCNC4=O)c(N)nc2F)ccc1C1CCOCC1 [Example I-165, 6-(3-amino-6-(3-((ethyl(methyl)amino)methyl)-4-(tetrahydro-2H-pyran-4-yl)phenyl)-5-fluoropyrazin-2-yl)-8-fluoro-3,4-dihydroisoquinolin-1(2H)-one] |
| 11 to 100 nM | > 1000 nM | CC(C)N1CCN(c2ccc(-c3nc(-c4ccc5c(c4)CCNC5=O)c(N)nc3Cl)cc2)CC1 [Example I-7, 6-(3-amino-5-chloro-6-(4-(4-isopropylpiperazin-1-yl)phenyl)pyrazin-2-yl)-3,4-dihydroisoquinolin-1(2H)-one] |
| 0.1 to 10 nM | > 1000 nM | CC(C)N1C[C@H]2C[C@@]2(c2ccc(-c3nc(-c4cc(F)c5c(c4)CCNC5=O)c(N)nc3F)cc2)C1 [Example I-15, 6-(3-amino-5-fluoro-6-(4-((1R,5S)-3-isopropyl-3-azabicyclo[3.1.0]hexan-1-yl)phenyl)pyrazin-2-yl)-8-fluoro-3,4-dihydroisoquinolin-1(2H)-one formate] |
| 0.1 to 10 nM | > 1000 nM | CN(C)Cc1cc(-c2nc(-c3ccc4c(=O)[nH]cc(F)c4c3)c(N)nc2F)ccc1C1CCOCC1 [Example I-42, 6-(3-amino-6-(3-((dimethylamino)methyl)-4-(tetrahydro-2H-pyran-4-yl)phenyl)-5-fluoropyrazin-2-yl)-4-fluoroisoquinolin-1(2H)-one] |
| 0.1 to 10 nM | > 1000 nM | COC1CCN(Cc2cc(-c3nc(-c4ccc5c(c4)CCNC5=O)c(N)nc3F)ccc2N2CCOCC2)C1 (stereo not drawn) [Example I-133, 6-(3-amino-5-fluoro-6-(3-((3-methoxypyrrolidin-1-yl)methyl)-4-morpholinophenyl)pyrazin-2-yl)-3,4-dihydroisoquinolin-1(2H)-one] |
| 0.1 to 10 nM | 101 to 1000 nM | CC(C)N1CCN(c2ccc(-c3nc(-c4ccc5c(c4)C4(CC4)CNC5=O)c(N)nc3F)cc2)CC1 [Example I-103, 6′-(3-amino-5-fluoro-6-(4-(4-isopropylpiperazin-1-yl)phenyl)pyrazin-2-yl)-2′,3′-dihydro-1′H-spiro[cyclopropane-1,4′-isoquinolin]-1′-one] |
| 0.1 to 10 nM | > 1000 nM | CCN1CCN(c2ccc(-c3nc(-c4ccc5c(=O)[nH]ccc5c4)c(N)nc3F)cc2)CC1 [Example I-32, 6-(3-amino-6-(4-(4-ethylpiperazin-1-yl)phenyl)-5-fluoropyrazin-2-yl)isoquinolin-1(2H)-one] |
| 0.1 to 10 nM | 101 to 1000 nM | CC(C)N1C[C@@H]2C[C@]2(c2ccc(-c3nc(-c4cc5c(cc4F)C(=O)NCC5)c(N)nc3F)cc2)C1 [Example I-6, 6-(3-amino-5-fluoro-6-(4-((1S,5R)-3-isopropyl-3-azabicyclo[3.1.0]hexan-1-yl)phenyl)pyrazin-2-yl)-7-fluoro-3,4-dihydroisoquinolin-1(2H)-one] |
| 0.1 to 10 nM | > 1000 nM | CN1C[C@@H]2C[C@]2(c2ccc(-c3nc(-c4ccc5c(=O)[nH]cc(F)c5c4)c(N)nc3F)cc2)C1 [Example I-80, 6-(3-amino-5-fluoro-6-(4-((1S,5R)-3-methyl-3-azabicyclo[3.1.0]hexan-1-yl)phenyl)pyrazin-2-yl)-4-fluoroisoquinolin-1(2H)-one] |
| 0.1 to 10 nM | 101 to 1000 nM | Nc1nc(F)c(-c2ccc(N3CCN(CC4CC4)CC3)cc2)nc1-c1cc2cc[nH]c(=O)c2cc1F [Example I-25, 6-(3-amino-6-(4-(4-(cyclopropylmethyl)piperazin-1-yl)phenyl)-5-fluoropyrazin-2-yl)-7-fluoroisoquinolin-1(2H)-one] |
| 0.1 to 10 nM | > 1000 nM | CN(C)Cc1cc(-c2nc(-c3cc(F)c4c(c3)CCNC4=O)c(N)nc2F)ccc1C1CCOCC1 [Example I-83, 6-(3-amino-6-(3-((dimethylamino)methyl)-4-(tetrahydro-2H-pyran-4-yl)phenyl)-5-fluoropyrazin-2-yl)-8-fluoro-3,4-dihydroisoquinolin-1(2H)-one] |
| 0.1 to 10 nM | 101 to 1000 nM | CC(C1CC1)N1CCN(c2ccc(-c3nc(-c4cc(F)c5c(c4)CCNC5=O)c(N)nc3F)cc2)CC1 (single isomer, unassigned) [Example I-30, 6-(3-amino-6-(4-(4-(1-cyclopropylethyl)piperazin-1-yl)phenyl)-5-fluoropyrazin-2-yl)-8-fluoro-3,4-dihydroisoquinolin-1(2H)-one] |

| SMILES | IC50 [1] | IC50 (Lck (h)) |
| --- | --- | --- |
| Nc1nc(F)c(-c2ccc(N3CCOCC3)cc2)nc1-c1ccc2c(c1)CCNC2=O [Example I-17, 6-(3-amino-5-fluoro-6-(4-morpholinophenyl)pyrazin-2-yl)-3,4-dihydroisoquinolin-1(2H)-one] | 0.1 to 10 nM | > 1000 nM |
